# Measurements from patent US6472391B2, “Nitrogen-containing heterocyclic compounds” (Millennium Pharmaceuticals, Inc., priority 1996, dated 2002).
row,SMILES,melting point
1,"COc1cc2ncnc(N3CCN(C(=S)NCC(c4ccccc4)c4ccccc4)CC3)c2cc1OC [Compound 11, 4-(6,7-Dimethoxy-4-quinazolinyl)-N-(2,2-diphenylethyl)-1-piperazinethiocarboxamide]",93 to 94 °C
2,"COc1cc2ncnc(N3CCN(C(=O)NC4CCCCC4)CC3)c2cc1OC [Compound 13, N-Cyclohexyl-4-(6,7-dimethoxy-4-quinazolinyl)-1-piperazinecarboxamide]",208 to 210 °C
3,"C#CCNC(=S)N1CCN(c2ncnc3cc(OC)c(OC)cc23)CC1 [Compound 16, 4-(6,7-Dimethoxy-4-quinazolinyl)-N-(2-propynyl)-1-piperazinethiocarboxamide]",158 to 160 °C
4,"COc1cc2ncnc(N3CCN(C(=O)Nc4ccc(C)cc4)CC3)c2cc1OC [Compound 17, 4-(6,7-Dimethoxy-4-quinazolinyl)-N-(4-tolyl)-1-piperazinecarboxamide]",225 to 228 °C
5,"CCc1ccc(NC(=O)N2CCN(c3ncnc4cc(OC)c(OC)cc34)CC2)cc1 [Compound 18, N-(4-Ethylphenyl)-4-(6,7-Dimethoxy-4-quinazolinyl)-1-piperazinecarboxamide]",251 to 252 °C
6,"CCCCc1ccc(NC(=O)N2CCN(c3ncnc4cc(OC)c(OC)cc34)CC2)cc1 [Compound 20, N-(4-Butylphenyl)-4-(6,7-dimethoxy-4-quinazolinyl)-1-piperazinecarboxamide]",216 to 222 °C
7,"CCCCc1ccc(NC(=S)N2CCN(c3ncnc4cc(OC)c(OC)cc34)CC2)cc1 [Compound 21, N-(4-Butylphenyl)-4-(6,7-dimethoxy-4-quinazolinyl)-1-piperazinethiocarboxamide]",171 to 173 °C
8,"COc1cc2ncnc(N3CCN(C(=S)Nc4ccc(C(C)(C)C)cc4)CC3)c2cc1OC [Compound 22, N-(4-tert-Butylphenyl)-4-(6,7-dimethoxy-4-quinazolinyl)-1-piperazinethiocarboxamide]",221 to 224 °C
9,"COc1cc2ncnc(N3CCN(C(=O)Nc4ccc(C(F)(F)F)cc4)CC3)c2cc1OC [Compound 23, 4-(6,7-Dimethoxy-4-quinazolinyl)-N-[4-(trifluoromethyl)phenyl]-1-piperazinecarboxamide]",227 to 230 °C
10,"C=Cc1ccc(NC(=S)N2CCN(c3ncnc4cc(OC)c(OC)cc34)CC2)cc1 [Compound 24, 4-(6,7-Dimethoxy-4-quinazolinyl)-N-(4-vinylphenyl)-1-piperazinethiocarboxamide]",110 to 111 °C
11,"COc1cc2ncnc(N3CCN(C(=O)Nc4ccc(C5CCCCC5)cc4)CC3)c2cc1OC [Compound 26, N-(4-Cyclohexylphenyl)-4-(6,7-dimethoxy-4-quinazolinyl)-1-piperazinecarboxamide]",238 to 241 °C
12,"COc1cc2ncnc(N3CCN(C(=O)Nc4cc(C)cc(C)c4)CC3)c2cc1OC [Compound 29, 4-(6,7-Dimethoxy-4-quinazolinyl)-N-(3,5-dimethylphenyl)-1-piperazinecarboxamide]",223 to 226 °C
13,"COc1cc2ncnc(N3CCN(C(=O)Nc4cc(C(F)(F)F)cc(C(F)(F)F)c4)CC3)c2cc1OC [Compound 32, N-[3,5-Bis(trifluoromethyl)phenyl]-4-(6,7-dimethoxy-4-quinazolinyl)-1-piperazinecarboxamide]",251 to 252 °C
14,"COc1cc2ncnc(N3CCN(C(=S)Nc4ccc(F)cc4)CC3)c2cc1OC [Compound 37, 4-(6,7-Dimethoxy-4-quinazolinyl)-N-(4-fluorophenyl)-1-piperazinethiocarboxamide]",212 to 217 °C
15,"COc1cc2ncnc(N3CCN(C(=S)NCc4ccc(Cl)cc4)CC3)c2cc1OC [Compound 42, N-(4-Chlorobenzyl)-4-(6,7-dimethoxy-4-quinazolinyl)-1-piperazinethiocarboxamide]",218 to 220 °C
16,"COc1cc2ncnc(N3CCN(C(=O)NS(=O)(=O)c4ccc(Cl)cc4)CC3)c2cc1OC [Compound 43, N-(4-Chlorobenzenesulfonyl)-4-(6,7-dimethoxy-4quinazolinyl)-1-piperazinecarboxamide]",228 to 234 °C
17,"COc1cc2ncnc(N3CCN(C(=S)Nc4ccc(I)cc4)CC3)c2cc1OC [Compound 47, 4-(6,7-Dimethoxy-4-quinazolinyl)-N-(4-iodophenyl)-1-piperazinethiocarboxamide]",129 to 132 °C
18,"COc1cc2ncnc(N3CCN(C(=O)Nc4ccc(Cl)cc4C(F)(F)F)CC3)c2cc1OC [Compound 48, N-[4-Chloro-2-(trifluoromethyl)phenyl]-4-(6,7-dimethoxy-4-quinazolinyl)-1-piperazinecarboxamide]",189 to 190 °C
19,"COc1ccc(NC(=O)N2CCN(c3ncnc4cc(OC)c(OC)cc34)CC2)cc1 [Compound 56, 4-(6,7-Dimethoxy-4-quinazolinyl)-N-(4-methoxyphenyl)-1-piperazinecarboxamide]",221 to 223 °C
20,"CCOc1ccc(NC(=O)N2CCN(c3ncnc4cc(OC)c(OC)cc34)CC2)cc1 [Compound 57, 4-(6,7-Dimethoxy-4-quinazolinyl)-N-(4-ethoxyphenyl)-1-piperazinecarboxamide]",165 to 166 °C
21,"CCCCOc1ccc(NC(=O)N2CCN(c3ncnc4cc(OC)c(OC)cc34)CC2)cc1 [Compound 58, N-(4-Butoxyphenyl)-4-(6,7-dimethoxy-4-quinazolinyl)-1-piperazinecarboxamide]",213 to 214 °C
22,"COc1cc2ncnc(N3CCN(C(=O)Nc4ccc(OC(F)(F)F)cc4)CC3)c2cc1OC [Compound 59, 4-(6,7-Dimethoxy-4-quinazolinyl)-N-[4-(trifluoromethoxy)phenyl]-1-piperazinecarboxamide]",204 to 205 °C
23,"COc1cc2ncnc(N3CCN(C(=S)Nc4ccc(Oc5ccccc5)cc4)CC3)c2cc1OC [Compound 61, 4-(6,7-Dimethoxy-4-quinazolinyl)-N-(4-phenoxyphenyl)-1-piperazinethiocarboxamide]",242 to 243 °C
24,"COc1cc2ncnc(N3CCN(C(=S)Nc4ccc(Oc5ccc([N+](=O)[O-])cc5)cc4)CC3)c2cc1OC [Compound 62, 4-(6,7-Dimethoxy-4-quinazolinyl)-N-[4-(4-nitrophenoxy)phenyl]-1-piperazinethiocarboxamide]",204 to 207 °C

# Results, then the molecule that gave them:
row,melting point,SMILES
1,202 to 203 °C,"COc1cc2ncnc(N3CCN(C(=O)Nc4ccc(C)c(C)c4)CC3)c2cc1OC [Compound 30, 4-(6,7-Dimethoxy-4-quinazolinyl)-N-(3,4-dimethylphenyl)-1-piperazinecarboxamide]"
2,280 to 282 °C,"COc1cc2ncnc(N3CCN(C(=O)Nc4c(C(C)C)cccc4C(C)C)CC3)c2cc1OC [Compound 31, N-(2,6-Diisopropylphenyl)-4-(6,7-dimethoxy-4-quinazolinyl)-1-piperazinecarboxamide]"
3,176 to 177 °C,"COc1cc2ncnc(N3CCN(C(=O)Nc4ccccc4F)CC3)c2cc1OC [Compound 34, 4-(6,7-Dimethoxy-4-quinazolinyl)-N-(2-fluorophenyl)-1-piperazinecarboxamide]"
4,214 to 220 °C,"COc1cc2ncnc(N3CCN(C(=O)Nc4cccc(F)c4)CC3)c2cc1OC [Compound 35, 4-(6,7-Dimethoxy-4-quinazolinyl)-N-(3-fluorophenyl)-1-piperazinecarboxamide]"
5,198 to 202 °C,"COc1cc2ncnc(N3CCN(C(=O)Nc4ccc(F)cc4)CC3)c2cc1OC [Compound 36, 4-(6,7-Dimethoxy-4-quinazolinyl)-N-(4-fluorophenyl)-1-piperazinecarboxamide]"
6,186 to 187 °C,"COc1cc2ncnc(N3CCN(C(=O)Nc4ccccc4Cl)CC3)c2cc1OC [Compound 38, N-(2-Chlorophenyl)-4-(6,7-dimethoxy-4-quinazolinyl)-1-piperazinecarboxamide]"
7,223 to 224 °C,"COc1cc2ncnc(N3CCN(C(=O)Nc4cccc(Cl)c4)CC3)c2cc1OC [Compound 39, N-(3-Chlorophenyl)-4-(6,7-dimethoxy-4-quinazolinyl)-1-piperazinecarboxamide]"
8,217 to 219 °C,"COc1cc2ncnc(N3CCN(C(=O)Nc4ccc(Cl)cc4)CC3)c2cc1OC [Compound 40, N-(4-Chlorophenyl)-4-(6,7-dimethoxy-4-quinazolinyl)-1-piperazinecarboxamide]"
9,221 to 222 °C,"COc1cc2ncnc(N3CCN(C(=O)Nc4cccc(Br)c4)CC3)c2cc1OC [Compound 44, N-(3-Bromophenyl)-4-(6,7-dimethoxy-4-quinazolinyl)-1-piperazinecarboxamide]"
10,238 to 242 °C,"COc1cc2ncnc(N3CCN(C(=O)Nc4ccc(I)cc4)CC3)c2cc1OC [Compound 46, 4-(6,7-Dimethoxy-4-quinazolinyl)-N-(4-iodophenyl)-1-piperazinecarboxamide]"
11,237 to 238 °C,"COc1cc2ncnc(N3CCN(C(=O)Nc4ccc(Cl)c(C(F)(F)F)c4)CC3)c2cc1OC [Compound 49, N-[4-Chloro-3-(trifluoromethyl)phenyl]-4-(6,7-dimethoxy-4-quinazolinyl)-1-piperazinecarboxamide]"
12,174 to 175 °C,"COc1cc2ncnc(N3CCN(C(=O)Nc4ccc(F)cc4F)CC3)c2cc1OC [Compound 50, N-(2,4-Difluorophenyl)-4-(6,7-dimethoxy-4-quinazolinyl)-1-piperazinecarboxamide]"
13,187 to 189 °C,"COc1cc2ncnc(N3CCN(C(=O)Nc4cc(F)ccc4F)CC3)c2cc1OC [Compound 51, N-(2,5-Difluorophenyl)-4-(6,7-dimethoxy-4-quinazolinyl)-1-piperazinecarboxamide]"
14,202 to 207 °C,"COc1cc2ncnc(N3CCN(C(=O)Nc4c(Cl)cccc4Cl)CC3)c2cc1OC [Compound 52, N-(2,6-Dichlorophenyl)-4-(6,7-dimethoxy-4-quinazolinyl)-1-piperazinecarboxamide]"
15,166 to 167 °C,"COc1cc2ncnc(N3CCN(C(=O)Nc4ccc(Cl)cc4Cl)CC3)c2cc1OC [Compound 53, N-(2,4-Dichlorophenyl)-4-(6,7-dimethoxy-4-quinazolinyl)-1-piperazinecarboxamide]"
16,139 to 140 °C,"COc1cc2ncnc(N3CCN(C(=O)Nc4cc(Cl)cc(Cl)c4)CC3)c2cc1OC [Compound 55, N-(3,5-Dichlorophenyl)-4-(6,7-dimethoxy-4-quinazolinyl)-1-piperazinecarboxamide]"
